Source: patent US20240262804A1, “NITROGEN-CONTAINING HETEROCYCLIC KETONES, PREPARATION METHODS AND MEDICINAL USES THEREOF” (Hansoh Bio LLC, priority 2021, published 2024)

biological target: bovine cardiac myosin (Bos taurus (Bovine), UniProt Q9BE39); assay: Myosin inhibitory potency: PK/LDH-coupled ATPase assay on bovine skinned cardiac myofibrils; format: biochemical; conditions: pCa=6.25, 50 μM ATP, 25° C., read-out: myosin inhibition activity IC50
Protocol: The average rates of ATPase inhibition, and the IC50 values are determined by Victor Nivo multimode plate reader (PerkinElmer, USA).
As to the assays background, a biochemical assay couples the ATPase activity of bovine cardiac myosin to an enzymatic coupling system consisting of pyruvate kinase and lactate dehydrogenase (PK/LDH) and monitoring the absorbance decrease of NADH (at 340 nm) as a function of time to measure the inhibitory ability of small molecule agents. In the assay, PK converts ADP (Adenosine diphosphate) to ATP (adenosine triphosphate) by converting PEP (phosphoenolpyruvate) to pyruvate. Pyruvate is then converted to lactate by LDH by converting NADH (nicotinamide adenine dinucleotide) to NAD (oxidized nicotinamide adenine dinucleotide).
In our experiments, bovine skinned cardiac myofibrils were isolated from the frozen bovine left ventricle as myosin's source in the ATPase assay. The calcium concentration that achieves a 50% (pCa50 or pCa=6.25) activation of the myofibril system was chosen as the final condition for assessing the activation activity according to the literature (DOI: 10.1074/jbc.M117.776815). Myofibrils ATPase activity was measured in a buffered solution containing 12 mM PIPES (piperazine-N, N′-bis(2-ethane sulfonic acid) and 2 mM magnesium chloride at pH 6.8 (PM12 buffer). Final assay conditions were 1 mg/mL of bovine cardiac myofibrils, 1:20 of stock PK/LDH (Sigma-Aldrich, Cat No. P0294-5X5ML), 50 μM ATP, 1 mM DTT (dithiothreitol), 0.75 mM NADH, 1.5 mM PEP at pCa50 (pCa=6.25). Compounds were dissolved in DMSO (dimethyl sulfoxide). Serial dilution of compounds was created such that the final desired concentration of compound would be achieved in a volume of 150 μL with a fixed DMSO concentration of 2% (v/v). 75 μL of a solution containing bovine cardiac myofibrils, PK/LDH, and calcium were added to a 96 well plate for a 7 point dose-response. In some circumstances, 10 point-response was used to repeat the ATPase assays on compounds of interest. Compounds were added to the myofibrils solution and incubated for 5 minutes. The enzymatic reaction was started with the addition of 75 μL of a solution containing ATP, PEP, NADH, compounds, and calcium. The ATPase activity was measured by reading absorbance at 340 nm in a PerkinElmer Victor Nivo plate reader at 25° C. in kinetic mode for 15 minutes using clear bottom plates. The slopes of the absorbance changes as a function of time for the first 10 minutes were normalized to slopes on the control wells containing all reagents, including DMSO, but without compounds. This normalized rate was then plotted as a function of small molecule concentration in GraphPad prism 9. The data were fitted to a four-parameter fit, and IC50 was calculated using Graphpad Prism 9.

Sequence of bovine cardiac myosin (Q9BE39 whole entry): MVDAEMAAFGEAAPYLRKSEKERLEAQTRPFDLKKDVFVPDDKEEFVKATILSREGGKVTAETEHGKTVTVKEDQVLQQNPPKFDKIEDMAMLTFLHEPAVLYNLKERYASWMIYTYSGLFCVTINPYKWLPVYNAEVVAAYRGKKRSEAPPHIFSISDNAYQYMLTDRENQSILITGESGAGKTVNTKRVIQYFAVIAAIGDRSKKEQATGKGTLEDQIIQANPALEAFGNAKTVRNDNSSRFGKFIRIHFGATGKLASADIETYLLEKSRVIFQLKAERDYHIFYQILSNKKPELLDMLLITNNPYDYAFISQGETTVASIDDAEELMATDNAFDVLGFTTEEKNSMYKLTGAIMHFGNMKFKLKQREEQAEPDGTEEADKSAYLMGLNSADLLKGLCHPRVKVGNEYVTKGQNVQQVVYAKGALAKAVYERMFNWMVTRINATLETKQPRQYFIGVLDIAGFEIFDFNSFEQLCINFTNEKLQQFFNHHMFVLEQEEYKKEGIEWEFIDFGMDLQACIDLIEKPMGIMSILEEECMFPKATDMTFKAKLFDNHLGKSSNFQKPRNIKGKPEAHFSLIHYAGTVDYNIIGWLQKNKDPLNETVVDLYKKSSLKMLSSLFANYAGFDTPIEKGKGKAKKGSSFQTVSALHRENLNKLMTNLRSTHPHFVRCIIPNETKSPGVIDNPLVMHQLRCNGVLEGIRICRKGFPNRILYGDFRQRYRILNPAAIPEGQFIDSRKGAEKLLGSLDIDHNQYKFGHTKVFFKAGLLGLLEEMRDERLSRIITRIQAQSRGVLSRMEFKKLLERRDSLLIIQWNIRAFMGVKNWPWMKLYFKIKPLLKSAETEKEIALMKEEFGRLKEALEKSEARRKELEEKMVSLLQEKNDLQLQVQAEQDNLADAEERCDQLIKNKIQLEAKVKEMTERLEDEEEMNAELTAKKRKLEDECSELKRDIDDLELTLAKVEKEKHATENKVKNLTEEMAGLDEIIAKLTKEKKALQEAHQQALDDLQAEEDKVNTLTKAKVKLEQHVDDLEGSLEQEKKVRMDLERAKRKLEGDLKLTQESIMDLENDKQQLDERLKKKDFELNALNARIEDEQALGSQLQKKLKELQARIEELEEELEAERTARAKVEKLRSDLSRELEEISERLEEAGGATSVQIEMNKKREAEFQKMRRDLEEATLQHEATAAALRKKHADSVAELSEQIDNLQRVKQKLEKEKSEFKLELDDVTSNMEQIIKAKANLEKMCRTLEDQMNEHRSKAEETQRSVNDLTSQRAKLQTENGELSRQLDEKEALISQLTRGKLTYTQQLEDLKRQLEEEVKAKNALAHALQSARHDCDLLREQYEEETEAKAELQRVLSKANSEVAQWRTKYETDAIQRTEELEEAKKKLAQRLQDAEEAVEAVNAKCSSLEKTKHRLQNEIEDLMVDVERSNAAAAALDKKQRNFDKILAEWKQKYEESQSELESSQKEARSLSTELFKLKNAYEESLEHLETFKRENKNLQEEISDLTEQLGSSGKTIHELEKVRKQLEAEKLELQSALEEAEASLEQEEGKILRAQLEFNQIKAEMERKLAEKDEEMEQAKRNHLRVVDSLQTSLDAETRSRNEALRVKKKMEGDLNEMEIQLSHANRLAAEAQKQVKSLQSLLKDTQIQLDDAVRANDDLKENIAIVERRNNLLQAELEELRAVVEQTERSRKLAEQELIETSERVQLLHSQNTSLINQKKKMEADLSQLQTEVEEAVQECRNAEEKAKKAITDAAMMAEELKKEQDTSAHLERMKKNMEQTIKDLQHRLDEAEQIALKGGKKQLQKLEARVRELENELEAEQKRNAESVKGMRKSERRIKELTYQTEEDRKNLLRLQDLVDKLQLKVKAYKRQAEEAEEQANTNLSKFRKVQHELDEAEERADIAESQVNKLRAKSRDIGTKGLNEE
Sequence of bovine cardiac myosin (P85100 whole entry partner): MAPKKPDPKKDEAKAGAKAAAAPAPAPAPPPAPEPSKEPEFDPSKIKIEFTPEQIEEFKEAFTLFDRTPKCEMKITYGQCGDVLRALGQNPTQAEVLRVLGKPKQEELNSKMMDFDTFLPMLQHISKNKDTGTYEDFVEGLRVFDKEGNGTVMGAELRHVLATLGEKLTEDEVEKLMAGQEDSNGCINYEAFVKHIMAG
Sequence of bovine cardiac myosin (Q3SZE5 whole entry partner): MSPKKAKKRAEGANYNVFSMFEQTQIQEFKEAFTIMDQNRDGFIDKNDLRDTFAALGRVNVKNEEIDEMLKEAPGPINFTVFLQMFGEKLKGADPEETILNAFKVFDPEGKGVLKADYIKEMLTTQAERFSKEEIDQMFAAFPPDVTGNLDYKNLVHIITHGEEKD

| SMILES | IC50 [nM] |
| --- | --- |
| C[C@H](Nc1nc(=O)n([C@H](C)C(F)(F)F)c(=O)[nH]1)c1ccc(OC(F)(F)F)cc1 [Example 174] | 2820 |
| C[C@H](Nc1nc(=O)n(C2CCOCC2)c(=O)[nH]1)c1cccc(C2CCN(C(=O)OC(C)(C)C)CC2)c1 [Example 211] | 1310 |
| CC(C)n1c(=O)nc(N[C@@H](C)c2cccc([C@H](C)O)c2)[nH]c1=O [Example 342] | 2070 |
| Cc1cc([C@H](C)Nc2nc(=O)n([C@@H]3CCOC[C@@H]3F)c(=O)[nH]2)ccc1F [Example 296] | 860 |
| C[C@H](Nc1nc(=O)n([C@H]2CCOC[C@H]2F)c(=O)[nH]1)c1ccc(Cl)c(Cl)c1 [Example 321] | 1070 |
| Cc1cccc([C@H](C)Nc2nc(=O)n([C@@H]3CCOC[C@@H]3F)c(=O)[nH]2)c1 [Example 315] | 1470 |
| CC(C)n1c(=O)nc(N[C@H](c2ccc(F)cc2F)C(F)F)[nH]c1=O [Example 262] | 2960 |
| CC(Nc1nc(=O)n(C2CCOCC2)c(=O)[nH]1)C1CC2(CCC2)C1 (centres unmarked) [Example 110] | 9000 |
| O=c1nc(NC2CCc3ccccc32)[nH]c(=O)n1C1CCOCC1 (centres unmarked) [Example 149] | 5500 |
| CC(Nc1nc(=O)n(C2CCOCC2)c(=O)[nH]1)c1cccc(F)c1 (centres unmarked) [Example 122] | 3480 |
| C[C@H](Nc1nc(=O)n(C2CCOCC2)c(=O)[nH]1)c1ccccc1Cl [Example 159] | 470 |
| CC(C)n1c(=O)nc(N[C@@H](C)c2ccc(Cl)c(Cl)c2)[nH]c1=O [Example 325] | 1170 |
| Cc1cccc([C@H](C)Nc2nc(=O)n(C3CCN(CC(F)(F)F)CC3)c(=O)[nH]2)c1 [Example 39] | 6700 |
| C[C@H](Nc1nc(=O)n(C2CCOCC2)c(=O)[nH]1)c1ccc(C#N)cc1 [Example 169] | 1450 |
| Cc1cn(-c2cccc([C@H](C)Nc3nc(=O)n(C4CCOCC4)c(=O)[nH]3)c2)cn1 [Example 205] | 3840 |
| Cc1cccc([C@H](CO)Nc2nc(=O)n(C3CCOCC3)c(=O)[nH]2)c1 [Example 317] | 2850 |
| C[C@H](Nc1nc(=O)n(C2CCOCC2)c(=O)[nH]1)c1cccc(-n2cccn2)c1 [Example 199] | 2100 |
| Cc1cccc([C@H](C)Nc2nc(=O)n(C3CCn4nccc4C3)c(=O)[nH]2)c1 (some centres unmarked) [Example 92] | 7470 |
| C[C@H](Nc1nc(=O)n([C@@H](C)C(F)(F)F)c(=O)[nH]1)c1ccc(Cl)c(Cl)c1 [Example 324] | 1060 |
| C[C@H](Nc1nc(=O)n([C@@H](C)C(F)(F)F)c(=O)[nH]1)c1ccc(OC(F)(F)F)cc1 [Example 175] | 2760 |
| C[C@H](Nc1nc(=O)n(C2CCCCC2)c(=O)[nH]1)C1CCCCC1 [Example 60] | 7410 |
| Cc1cccc([C@H](Nc2nc(=O)n(C3CCOCC3)c(=O)[nH]2)C(F)(F)F)c1 [Example 280] | 2430 |

| SMILES | IC50 [nM] |
| --- | --- |
| CC(Nc1nc(=O)n(C2CCOCC2)c(=O)[nH]1)c1ccccc1C(F)(F)F (centres unmarked) [Example 129] | 230 |
| C[C@H](Nc1nc(=O)n([C@H](C)C(F)(F)F)c(=O)[nH]1)c1cccc(F)c1 [Example 178] | 3320 |
| C[C@H](Nc1nc(=O)n(C2CCOCC2)c(=O)[nH]1)c1cccc(-c2cccnc2)c1 [Example 222] | 2050 |
| CC(=O)N1CCC(n2c(=O)nc(N[C@@H](C)C3CCCCC3)[nH]c2=O)CC1 [Example 236] | 2650 |
| C[C@H](Nc1nc(=O)n(C2CCOCC2)c(=O)[nH]1)c1cccc([C@@H](C)O)c1 [Example 286] | 240 |
| O=c1nc(NC(c2ccccc2)C(F)F)[nH]c(=O)n1C1CCOCC1 (centres unmarked) [Example 143] | 7640 |
| C[C@H](Nc1nc(=O)n(C2CCOCC2)c(=O)[nH]1)c1cccc(-c2ccccc2)c1 [Example 220] | 1320 |
| Cc1n[nH]cc1-c1cccc([C@H](C)Nc2nc(=O)n(C3CCOCC3)c(=O)[nH]2)c1 [Example 230] | 5710 |
| C[C@H](Nc1nc(=O)n(C2CCN(CCF)CC2)c(=O)[nH]1)C1CCCCC1 [Example 300] | 2290 |
| C[C@H](Nc1nc(=O)n(C2CCOCC2)c(=O)[nH]1)c1cccc(-c2cncnc2)c1 [Example 223] | 890 |
| C[C@H](Nc1nc(=O)n([C@H]2CC[C@@H](O)CC2)c(=O)[nH]1)C1CCCCC1 [Example 237] | 4780 |
| CC(C)(C#N)c1cccc([C@@H](Nc2nc(=O)n(C3CCOCC3)c(=O)[nH]2)C(F)F)c1 [Example 268] | 1070 |
| COc1cc([C@H](C)Nc2nc(=O)n(C3CCOCC3)c(=O)[nH]2)ccc1F [Example 171] | 910 |
| C[C@H](Nc1nc(=O)n(C2CCOCC2)c(=O)[nH]1)c1cccc(C#N)c1 [Example 327] | 1270 |
| Cc1cccc([C@H](C)Nc2nc(=O)n(C3CCCCC3)c(=O)[nH]2)c1 [Example 93] | 8030 |
| C[C@H](Nc1nc(=O)n(C2CCOCC2)c(=O)[nH]1)c1cccc(C2CN(CC(F)(F)F)C2)c1 [Example 288] | 360 |
| C[C@H](Nc1nc(=O)n(C2CCC(O)C2)c(=O)[nH]1)C1CCCCC1 (some centres unmarked) [Example 232] | 8350 |
| C[C@H](Nc1nc(=O)n([C@@H]2CCOC[C@@H]2F)c(=O)[nH]1)c1ccc(Cl)c(Cl)c1 [Example 320] | 1020 |
| C[C@H](Nc1nc(=O)n([C@@H](C)C(F)(F)F)c(=O)[nH]1)c1cccc(F)c1 [Example 179] | 3620 |
| C[C@H](Nc1nc(=O)n(C2CCOCC2)c(=O)[nH]1)c1cccc(N2CCCCC2)c1 [Example 216] | 1300 |
| CC(=O)N1CC(c2cccc([C@H](C)Nc3nc(=O)n(C4CCOCC4)c(=O)[nH]3)c2)C1 [Example 273] | 580 |
| C[C@H](Nc1nc(=O)n(C2CCNCC2)c(=O)[nH]1)C1CCCCC1 [Example 235] | 1660 |

| SMILES | IC50 [nM] |
| --- | --- |
| Cc1ccc([C@H](C)Nc2nc(=O)n(C3CCOCC3)c(=O)[nH]2)cc1C [Example 153] | 1230 |
| C[C@H](Nc1nc(=O)n([C@H]2CC[C@H](F)CC2)c(=O)[nH]1)C1CCCCC1 [Example 87] | 450 |
| Cc1cccc([C@H](C)Nc2nc(=O)n(C3CCN(S(C)(=O)=O)CC3)c(=O)[nH]2)c1 [Example 244] | 1230 |
| CC[C@H](Nc1nc(=O)n(C2CCOCC2)c(=O)[nH]1)C1CCCCC1 [Example 116] | 3950 |
| CC(Nc1nc(=O)n(C2CCOCC2)c(=O)[nH]1)c1cccc(C2CC2)c1 (centres unmarked) [Example 136] | 4980 |
| COC[C@H](Nc1nc(=O)n(C2CCOCC2)c(=O)[nH]1)c1ccccc1 [Example 304] | 1780 |
| COCC(Nc1nc(=O)n(C(C)C)c(=O)[nH]1)c1cc(C)ccc1F (centres unmarked) [Example 275] | 1810 |
| C[C@H](Nc1nc(=O)n(C2CCOCC2)c(=O)[nH]1)c1ccc(F)c(F)c1 [Example 164] | 1360 |
| CC(C)n1c(=O)nc(N[C@H](c2cccc(C(O)C3CC3)c2)C(F)F)[nH]c1=O (some centres unmarked) [Example 265] | 1100 |
| CC(Nc1nc(=O)n(C2CCOCC2)c(=O)[nH]1)c1ccc2c(c1)OCO2 (centres unmarked) [Example 128] | 1880 |
| COC[C@H](Nc1nc(=O)n(C2CCOCC2)c(=O)[nH]1)c1ccc(F)cc1F [Example 269] | 1770 |
| CC(Nc1nc(=O)n(C2CCNCC2)c(=O)[nH]1)c1ccc(C(F)(F)F)cc1 (centres unmarked) [Example 193] | 5150 |
| C[C@H](Nc1nc(=O)n(C2CCOCC2)c(=O)[nH]1)c1cccc(C2CCCCC2)c1 [Example 215] | 880 |
| Cc1cccc([C@@H](Nc2nc(=O)n(C3CCOCC3)c(=O)[nH]2)C2CC2)c1 [Example 335] | 620 |
| C[C@H](Nc1nc(=O)n([C@@H]2CCOC[C@@H]2F)c(=O)[nH]1)c1cccc(C(F)(F)F)c1 [Example 309] | 1610 |
| C[C@H](Nc1nc(=O)n(C2CCOCC2)c(=O)[nH]1)c1cccc(-c2cn[nH]c2)c1 [Example 228] | 4140 |
| CC(Nc1nc(=O)n(C2CCOCC2)c(=O)[nH]1)c1ccc(O)cc1 (centres unmarked) [Example 103] | 14100 |
| C[C@H](Nc1nc(=O)n([C@H]2CCOC[C@H]2F)c(=O)[nH]1)c1ccc(F)cc1F [Example 281] | 2260 |
| C[C@H](Nc1nc(=O)n(C2CCOCC2)c(=O)[nH]1)c1ccc(C(C)(C)C)cc1 [Example 160] | 1600 |
| CC(Nc1nc(=O)n(C2CCOCC2)c(=O)[nH]1)c1ccc(C(F)(F)F)cc1 (centres unmarked) [Example 131] | 2490 |
| Cc1cccc(C(C)Nc2nc(=O)n(C3CCNCC3)c(=O)[nH]2)c1 (centres unmarked) [Example 187] | 3340 |
